Results taken from PMC10175095 (Therapeutic drug monitoring, 2023).

What was measured:
[1] = Long-term stability of unprocessed plasma samples at −80°C; assay type: in vitro ADME; settings: human plasma
[2] = Freeze-thaw stability of unprocessed plasma samples; assay type: in vitro ADME; settings: human plasma, 3 freeze (-80°C)-thaw cycles
[3] = Pre-processed stability in human plasma; assay type: in vitro ADME; settings: 2.5 h
CDK4/6 = settings: compared with abemaciclib; cited from earlier work
[4] = Processed sample stability in final extract; assay type: physicochemical; settings: 4°C, autosampler, 25.1 h
[5] = Reinjection stability in final extract; assay type: physicochemical; settings: reinjected, 4°C, autosampler, 25.95 h
[6] = major systemic metabolite; cited from earlier work
[7] = RT (20–25°C), yellow light, nominal 15 ng/mL
[8] = RT (20–25°C), yellow light, nominal 1500 ng/mL

SMILES: Cc1nc2c(F)cc(-c3nc(Nc4ccc(CN5CCNCC5)cn4)ncc3F)cc2n1C(C)C [Abemaciclib-M2]
- Accuracy vs fresh QCs ([1]; 3 months, nominal 15 ng/mL): 107%
- Accuracy vs. nominal concentration ([1]; 3 months, nominal 15 ng/mL): 97.6%
- Mean measured concentration ([1]; 3 months, nominal 15 ng/mL): 14.6 ng/mL
- Accuracy vs fresh QCs ([1]; 3 months, nominal 150 ng/mL): 104%
- Accuracy vs. nominal concentration ([1]; 3 months, nominal 150 ng/mL): 100%
- Mean measured concentration ([1]; 3 months, nominal 150 ng/mL): 150 ng/mL
- Accuracy vs fresh QCs ([1]; 3 months, nominal 1500 ng/mL): 98.7%
- Accuracy vs. nominal concentration ([1]; 3 months, nominal 1500 ng/mL): 100%
- Mean measured concentration ([1]; 3 months, nominal 1500 ng/mL): 1503 ng/mL
- Accuracy vs fresh QCs ([1]; 7 months, nominal 15 ng/mL): 102%
- Accuracy vs. nominal concentration ([1]; 7 months, nominal 15 ng/mL): 96.9%
- Mean measured concentration ([1]; 7 months, nominal 15 ng/mL): 14.5 ng/mL
- Accuracy vs fresh QCs ([1]; 7 months, nominal 150 ng/mL): 92.4%
- Accuracy vs. nominal concentration ([1]; 7 months, nominal 150 ng/mL): 102%
- Mean measured concentration ([1]; 7 months, nominal 150 ng/mL): 154 ng/mL
- Accuracy vs fresh QCs ([1]; 7 months, nominal 1500 ng/mL): 93.8%
- Accuracy vs. nominal concentration ([1]; 7 months, nominal 1500 ng/mL): 93.6%
- Mean measured concentration ([1]; 7 months, nominal 1500 ng/mL): 1403 ng/mL
- Accuracy vs fresh QCs ([1]; 12 months, nominal 15 ng/mL): 111%
- Accuracy vs. nominal concentration ([1]; 12 months, nominal 15 ng/mL): 101%
- Mean measured concentration ([1]; 12 months, nominal 15 ng/mL): 15.1 ng/mL
- Accuracy vs fresh QCs ([1]; 12 months, nominal 150 ng/mL): 95.6%
- Accuracy vs. nominal concentration ([1]; 12 months, nominal 150 ng/mL): 110%
- Mean measured concentration ([1]; 12 months, nominal 150 ng/mL): 166 ng/mL
- Accuracy vs fresh QCs ([1]; 12 months, nominal 1500 ng/mL): 96.8%
- Accuracy vs. nominal concentration ([1]; 12 months, nominal 1500 ng/mL): 104%
- Mean measured concentration ([1]; 12 months, nominal 1500 ng/mL): 1567 ng/mL
- Accuracy vs fresh QCs ([2]; nominal 15 ng/mL): 98.2%
- Accuracy vs. nominal concentration ([2]; nominal 15 ng/mL): 100%
- Mean measured concentration ([2]; nominal 15 ng/mL): 15.0 ng/mL
- Accuracy vs fresh QCs ([2]; nominal 1500 ng/mL): 98.2%
- Accuracy vs. nominal concentration ([2]; nominal 1500 ng/mL): 99.6%
- Mean measured concentration ([2]; nominal 1500 ng/mL): 1493 ng/mL
- Accuracy vs fresh QCs ([3]; 37°C, dark, nominal 15 ng/mL): 95.8%
- Accuracy vs. nominal concentration ([3]; 37°C, dark, nominal 15 ng/mL): 101%
- Mean measured concentration ([3]; 37°C, dark, nominal 15 ng/mL): 15.1 ng/mL
- Accuracy vs fresh QCs ([3]; 37°C, dark, nominal 1500 ng/mL): 103%
- Accuracy vs. nominal concentration ([3]; 37°C, dark, nominal 1500 ng/mL): 103%
- Mean measured concentration ([3]; 37°C, dark, nominal 1500 ng/mL): 1540 ng/mL
- Accuracy vs fresh QCs [3, 7]: 96.6%
- Accuracy vs. nominal concentration [3, 7]: 102%
- Mean measured concentration [3, 7]: 15.3 ng/mL
- Accuracy vs fresh QCs [3, 8]: 104%
- Accuracy vs. nominal concentration [3, 8]: 104%
- Mean measured concentration [3, 8]: 1557 ng/mL
- Pharmacological potency vs parent drug (CDK4/6): equipotent
- Accuracy vs fresh QCs ([4]; nominal 15 ng/mL): 100%
- Accuracy vs. nominal concentration ([4]; nominal 15 ng/mL): 110%
- Mean measured concentration ([4]; nominal 15 ng/mL): 16.5 ng/mL
- Accuracy vs fresh QCs ([4]; nominal 1500 ng/mL): 102%
- Accuracy vs. nominal concentration ([4]; nominal 1500 ng/mL): 102%
- Mean measured concentration ([4]; nominal 1500 ng/mL): 1537 ng/mL
- Accuracy vs fresh QCs ([5]; nominal 15 ng/mL): 103%
- Accuracy vs. nominal concentration ([5]; nominal 15 ng/mL): 113%
- Mean measured concentration ([5]; nominal 15 ng/mL): 16.9 ng/mL
- Accuracy vs fresh QCs ([5]; nominal 150 ng/mL): 96.5%
- Accuracy vs. nominal concentration ([5]; nominal 150 ng/mL): 104%
- Mean measured concentration ([5]; nominal 150 ng/mL): 155 ng/mL
- Accuracy vs fresh QCs ([5]; nominal 1500 ng/mL): 103%
- Accuracy vs. nominal concentration ([5]; nominal 1500 ng/mL): 104%
- Mean measured concentration ([5]; nominal 1500 ng/mL): 1557 ng/mL
- Share of the total circulating analytes in plasma [6]: 25%
